Laboratory results as given in patent publication US8148404B2, “Modulators of CB1 receptors” (7TM Pharma A/S, priority 2006, dated 2012).

Biological target: T1, human CB1 receptor (Homo sapiens, UniProt P21554)
T1 construct: expressed in transfected cells; membranes used
Assay: Cannabinoid Receptor-1 functional assay: inhibition of CP55940-induced [35S]GTPγS binding to membranes of CHO-K1 cells expressing human CB1
Type: biochemical
Conditions: 3 nM CP55940, [35S]GTPγS SPA, hCB1 membranes; read-out: IC50 value for antagonizing a CB1 receptor agonist
Excerpt: Transfection and Cell Culture—The cDNA encoding the human CB1 (Cannabinoid Receptor-1) receptor (GenBank accession number NM_016083) was cloned from a human adipose tissue cDNA library and cloned into the eukaryotic expression vector pcDNA3.1 (Invitrogen).
Chinese Hamster Ovary cells (CHO-K1) stably expressing recombinant human CB1 were generated by transfecting the plasmid containing the coding sequence of the human CB1 receptor in CHO-K1 cells, using lipofectamin, according to the manufacturer instructions. Resistant clones were selected in the presence of 600 μg/ml G418 (Life technology). Stably transfected CHO-K1 cells were maintained in Ham's F-12 culture medium (Invitrogen), supplemented with 10% fetal calf serum (Invitrogen), 100 U/ml penicillin, 100 μg/ml streptomycin (Life Technology), and 600 μg/ml G418.
Functional activities of the above examples of compounds of the invention were assessed in vitro by measuring their ability to inhibit CP55940-induced [^35S]GTPγS binding to membranes prepared from CHO-K1 cells expressing the human CB1 receptor (described in Transfection and Cell Culture). CP55940 is a well known non-selective CB1 and CB2 receptor agonist (e.g Felder et al., 1995, Molecular Pharmacology, (48) 443-50). Membranes were prepared by a standard procedure. Briefly, cells were harvested using 10 mM EDTA and collected by centrifugation. Pelleted cells were homogenized in ice-cold 20 mM Hepes (pH 7.4), 10 mM EDTA and protease inhibitors (Complete protease inhibitor cocktail tablet, Roche) using an Ultra Turrax Homogenizer. The homogenate was centrifuged at 14 000 rpm for 45 min. at 4° C. The resultant pellet was resuspended in the same buffer but with only 0.1 mM EDTA and was again centrifuged at 14 000 rpm for 45 min. at 4° C. The resulting pellet (membranes) was resuspended in 20 mM Hepes (pH 7.4), 0.1 mM EDTA, 2 mM MgCl2 and protease inhibitors and protein concentration was determined by Micro BCA Protein Assay Reagent Kit (Pierce Biotechnology) according to the manufacturer instructions. The [^35S]GTPγS SPA (Scintillation Proximity Assay) binding assay was performed by incubating 5 μg/well hCB1-membranes with 1 nM [^35S]GTPγS (Perkin Elmer—NEG 030H) in the presence of 3 nM of CP55940 and various concentrations of the test compounds at room temperature for 1 hr in 96-well microtiter plates. 0.4 mg/well SPA beads (PVT-WGA; RPNQ0001 Amersham Pharmacia Biotech) were then added and the incubation continued for further 30 min. on an orbital shaker. The assay buffer contained 50 mM HEPES (pH 7.5), 50 mM NaCl, 2.5 mM MgCl2, 0.1% BSA, 1 μM GDP and 100 μg/ml Saponin. Microtiter plates were centrifuged at 1500 rpm for 5 min. and radioactivity was read immediately using a Topcounter (PerkinElmer Life Sciences). Data were analyzed and IC50 values determined by non-linear regression using the Prism software (GraphPad Software, San Diego).

T1 sequence (P21554 whole entry): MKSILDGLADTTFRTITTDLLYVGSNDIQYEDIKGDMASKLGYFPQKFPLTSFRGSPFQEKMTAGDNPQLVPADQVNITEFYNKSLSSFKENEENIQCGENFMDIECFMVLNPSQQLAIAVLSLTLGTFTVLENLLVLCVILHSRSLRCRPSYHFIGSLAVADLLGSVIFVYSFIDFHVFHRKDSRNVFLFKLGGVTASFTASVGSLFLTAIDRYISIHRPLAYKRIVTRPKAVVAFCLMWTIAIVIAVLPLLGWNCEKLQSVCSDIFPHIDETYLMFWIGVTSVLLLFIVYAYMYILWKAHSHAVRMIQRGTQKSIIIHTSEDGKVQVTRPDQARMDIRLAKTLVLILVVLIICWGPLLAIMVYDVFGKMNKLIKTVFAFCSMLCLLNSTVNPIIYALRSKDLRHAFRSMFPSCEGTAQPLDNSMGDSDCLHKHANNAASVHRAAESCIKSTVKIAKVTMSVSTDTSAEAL

Compound | IC50 [µM]
COC1(c2ccc(F)cc2)CCN(C(=O)c2nn(-c3ccccc3Cl)c(-c3ccc(Cl)cc3)c2CC(=O)O)CC1 [[1.17], {5-(4-Chloro-phenyl)-1-(2-chloro-phenyl)-3-[4-(4-fluoro-phenyl)-4-methoxy-piperidine-1carbonyl]-1H-pyrazol-4-yl}-acetic acid] | < 0.3
O=C(O)Cc1c(C(=O)N2CCC(O)(c3ccc(C(F)(F)F)cc3)CC2)nn(-c2ccccc2Cl)c1-c1ccc(Cl)cc1 [[1.10], {1-(2-Chloro-phenyl)-5-(4-chloro-phenyl)-3-[4-hydroxy-4-(4-trifluoromethyl-phenyl)-piperidine-1-carbonyl]-1H-pyrazol-4-yl}-acetic acid] | < 0.3
O=C(O)Cc1c(C(=O)N2CCC(O)(c3ccccn3)CC2)nn(-c2ccccc2Cl)c1-c1ccc(Cl)cc1 [[1.9], [1-(2-Chloro-phenyl)-5-(4-chloro-phenyl)-3-(4′-hydroxy-3′,4′,5′,6′-tetrahydro-2′H-[2,4′]bipyridinyl-1′-carbonyl)-1H-pyrazol-4yl]-acetic acid] | 0.3 to 3
O=C(O)Cc1c(C(=O)N2CCC(O)(c3cccc(F)c3F)CC2)nn(-c2ccccc2Cl)c1-c1ccc(Cl)cc1 [[1.25], {5-(4-Chloro-phenyl)-1-(2-chloro-phenyl)-3-[4-(2,3-difluoro-phenyl)-4-hydroxy-piperidine-1-carbonyl]-1H-pyrazol-4yl}-acetic acid] | < 0.3
O=C(c1nn(-c2ccccc2Cl)c(-c2ccc(Cl)cc2)c1Cc1nn[nH]n1)N1CCC(c2ccc(F)cc2)CC1 [[3.3], [1-(2-Chloro-phenyl)-5-(4-chloro-phenyl)-4-(2H-tetrazol-5-ylmethyl)-1H-pyrazol-3-yl]-[4-(4-fluoro-phenyl)-piperidin-1-yl]-methanone] | < 0.3
O=C(O)Cc1c(C(=O)N2CCC(c3ccc(C(F)(F)F)cc3)C2)nn(-c2ccccc2Cl)c1-c1ccc(Cl)cc1 (stereo not drawn) [[1.39], {1-(2-Chloro-phenyl)-5-(4-chloro-phenyl)-3-[3-(4-trifluoromethyl-phenyl)-pyrrolidine-1-carbonyl]-1H-pyrazol-4-yl}-acetic acid] | < 0.3
O=C(O)Cc1c(C(=O)N2CCC(Oc3cccc(F)c3)CC2)nn(-c2ccccc2Cl)c1-c1ccc(Cl)cc1 [[1.62], {1-(2-Chloro-phenyl)-5-(4-chloro-phenyl)-3-[4-(3-fluorophenoxy)-piperidine-1-carbonyl]-1H-pyrazol-4-yl}-acetic acid] | < 0.3
O=C(O)Cc1c(C(=O)N2CCOCC2)nn(-c2ccccc2Cl)c1-c1ccc(Cl)cc1 [[1.48], [1-(2-Chloro-phenyl)-5-(4-chloro-phenyl)-3-(morpholine-4-carbonyl)-1H-pyrazol-4-yl]-acetic acid] | 3 to 10
Cc1noc(C2CCN(C(=O)c3nn(-c4ccccc4Cl)c(-c4ccc(Cl)cc4)c3CC(=O)O)CC2)n1 [[1.20], {1-(2-Chloro-phenyl)-5-(4-chloro-phenyl)-3-[4-(3-methyl-[1,2,4]oxadiazol-5-yl)-piperidine-1-carbonyl]-1H-pyrazol-4-yl}-acetic acid] | 0.3 to 3
N#Cc1ccccc1C1CCN(C(=O)c2nn(-c3ccccc3Cl)c(-c3ccc(Cl)cc3)c2CC(=O)O)CC1 [[1.51], {1-(2-Chloro-phenyl)-5-(4-chloro-phenyl)-3-[4-(2-cyano-phenyl)-piperidine-1-carbonyl]-1H-pyrazol-4-yl}-acetic acid] | < 0.3
O=C(O)Cc1c(C(=O)N2CCC(c3cccc(Cl)c3)CC2)nn(-c2ccccc2Cl)c1-c1ccc(Cl)cc1 [[1.31], {1-(2-Chloro-phenyl)-5-(4-chloro-phenyl)-3-[4-(3-chloro-phenyl)-piperidine-1-carbonyl]-1H-pyrazol-4-yl}-acetic acid] | < 0.3
COc1cccc(C2CCN(C(=O)c3nn(-c4ccccc4Cl)c(-c4ccc(Cl)cc4)c3CC(=O)O)CC2)c1 [[1.37], {1-(2-Chloro-phenyl)-5-(4-chloro-phenyl)-3-[4-(3-methoxy-phenyl)-piperidine-1-carbonyl]-1H-pyrazol-4-yl}-acetic acid] | < 0.3
O=C(O)Cc1c(C(=O)N2CCC(Oc3ccc(F)c(F)c3)CC2)nn(-c2ccccc2Cl)c1-c1ccc(Cl)cc1 [[1.61], {1-(2-Chloro-phenyl)-5-(4-chloro-phenyl)-3-[4-(3,4-difluorophenoxy)-piperidine-1-carbonyl]-1H-pyrazol-4-yl}-acetic acid] | < 0.3
O=C(c1nn(-c2ccccc2Cl)c(-c2ccc(Cl)cc2)c1Cc1nn[nH]n1)N1CCC(Oc2ccccc2)CC1 [[3.5], [1-(2-Chloro-phenyl)-5-(4-chloro-phenyl)-4-(2H-tetrazol-5-ylmethyl)-1H-pyrazol-3-yl]-[4-phenoxy-piperidin-1-yl]-methanone] | < 0.3
N#Cc1ccc(C2CCN(C(=O)c3nn(-c4ccccc4Cl)c(-c4ccc(Cl)cc4)c3CC(=O)O)CC2)cc1 [[1.45], {1-(2-Chloro-phenyl)-5-(4-chloro-phenyl)-3-[4-(4-cyano-phenyl)-piperidine-1-carbonyl]-1H-pyrazol-4-yl}-acetic acid] | < 0.3
CC(C(=O)O)c1c(C(=O)N2CCC(c3ccccc3F)CC2)nn(-c2ccccc2Cl)c1-c1ccc(Cl)cc1 (stereo not drawn) [Compound [1.52], 2-{1-(2-Chloro-phenyl)-5-(4-chloro-phenyl)-3-[4-(2-fluoro-phenyl)-piperidine-1-carbonyl]-1H-pyrazol-4-yl}-propionic acid] | < 0.3
O=C(O)Cc1c(C(=O)N2CC=C(c3ccccc3)CC2)nn(-c2ccccc2Cl)c1-c1ccc(Cl)cc1 [Compound [1.1], [1-(2-Chloro-phenyl)-5-(4-chloro-phenyl)-3-(4-phenyl-3,6-dihydro-2H-pyridine-1-carbonyl)-1H-pyrazol-4-yl]-acetic acid] | < 0.3
O=C(O)Cc1c(C(=O)N2CCC(c3ccccc3F)CC2)nn(-c2ccccc2F)c1-c1ccc(Cl)cc1 [[4.4], {1-(2-Fluoro-phenyl)-5-(4-chloro-phenyl)-3-[4-(2-fluoro-phenyl)-piperidine-1-carbonyl]-1H-pyrazol-4-yl}-acetic acid] | < 0.3
O=C(O)Cc1c(C(=O)N2CCC(c3ccccc3)CC2)nn(-c2ccccc2Cl)c1-c1ccc(Cl)cc1 [[1.33], [1-(2-Chloro-phenyl)-5-(4-chloro-phenyl)-3-(4-phenyl-piperidine-1-carbonyl)-1H-pyrazol-4-yl]-acetic acid] | < 0.3
O=C(O)Cc1c(C(=O)N2CCC(O)(c3ccc(F)c(C(F)(F)F)c3)CC2)nn(-c2ccccc2Cl)c1-c1ccc(Cl)cc1 [[1.42], {1-(2-Chloro-phenyl)-5-(4-chloro-phenyl)-3-[4-(4-fluoro-3-trifluoromethyl-phenyl)-4-hydroxy-piperidine-1-carbonyl]-1H-pyrazol-4-yl}-acetic acid] | < 0.3
O=C(O)Cc1c(C(=O)N2CCc3ccccc3C2)nn(-c2ccccc2Cl)c1-c1ccc(Cl)cc1 [[1.4], [5-(4-Chloro-phenyl)-1-(2-chloro-phenyl)-3-(3,4-dihydro-1H-isoquinoline-2-carbonyl)-1H-pyrazol-4-yl]-acetic acid] | < 0.3
O=C(c1nn(-c2ccccc2Cl)c(-c2ccc(Cl)cc2)c1Cc1nn[nH]n1)N1CC(Oc2ccc(F)cc2)C1 [[3.7], [1-(2-Chloro-phenyl)-5-(4-chloro-phenyl)-4-(2H-tetrazol-5-ylmethyl)-1H-pyrazol-3-yl]-[3-(4-fluorophenoxy)-azetidin-1-yl]-methanone] | < 0.3
O=C(c1nn(-c2ccccc2F)c(-c2ccc(Cl)cc2)c1Cc1nn[nH]n1)N1CCC(c2ccccc2F)CC1 [[4.2], [1-(2-Fluoro-phenyl)-5-(4-chloro-phenyl)-4-(2H-tetrazol-5-ylmethyl)-1H-pyrazol-3-yl]-[4-(2-fluoro-phenyl)-piperidin-1-yl]-methanone] | < 0.3
O=C(O)Cc1c(C(=O)N2CCC(c3ccc(Cl)cc3)CC2)nn(-c2ccccc2Cl)c1-c1ccc(Cl)cc1 [[1.29], {1-(2-Chloro-phenyl)-5-(4-chloro-phenyl)-3-[4-(4-chloro-phenyl)-piperidine-1-carbonyl]-1H-pyrazol-4-yl}-acetic acid] | < 0.3
